This note sets out measurements from patent US9073892B2, “Indazolyl triazol derivatives” (Merck Serono S.A., priority 2010, dated 2015).

For the experiment, the system named is T1, IRAK1/4 human.
T1 construct: fused on or other part: His tag and TEV cleavage site at the N-terminus
The experiment is described as follows: IRAK1/4 phosphorylation IC50 (enzymatic assay, table 2). Format: biochemical. Particulars: human IRAK1/4 phosphorylation. A digest of the protocol: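 In 384-well plates, reactions in 50 mM Hepes pH7.0 buffer with MgCl2, DTT, EGTA and BSA combined ATP, compounds in DMSO at 20 µM to 1 nM, and either His-TEV-tagged human IRAK-1 or His-TEV-tagged human IRAK-4 plus STK1-biotin peptide. They ran for 2 or 3 hours alongside 2% DMSO controls. Each value is an IC50 for inhibition.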

pIC50: −log10 of the molar value.

Take `O=C(c1ccc(-n2cc(-c3n[nH]c4cc(-c5ccccc5)ccc34)nn2)cc1)N1CCOCC1` [Example 203]: the pIC50 (usually −log10 of the IC50, conventionally taken in molar units) is 5.30 to 6.00.

`O=S(=O)(c1ccc(-n2cc(-c3n[nH]c4ccccc34)nn2)cc1)N1CCOCC1` [Example 243] gave a pIC50 of 6.00 to 7.00.

Molecule `O=C(c1ccc(-n2cc(-c3n[nH]c4cc(C#CCO)ccc34)nn2)cc1)N1CCOCC1` [Example 146, 3-(3-{1-[4-(morpholin-4-ylcarbonyl)phenyl]-1H-1,2,3-triazol-4-yl}-1H-indazol-6-yl)prop-2-yn-1-ol] had a pIC50 of 6.00 to 7.00.

With `CN1CCCC2(CCCN(C(=O)c3ccc(-n4cc(-c5n[nH]c6ccccc56)nn4)cc3)C2)C1=O` (stereo not shown) [Example 163], the pIC50 is 6.00 to 7.00.

Consider `O=C(c1ccc(-n2cc(-c3n[nH]c4ccc(N5CCN6CCCC6C5)cc34)nn2)cc1)N1CCOCC1` (stereo not shown) [Example 250], for which the pIC50 was 6.00 to 7.00.

`CN(C)C1CCN(C(=O)c2ccc(-n3cc(-c4n[nH]c5ccc(C6=CCCCC6)cc45)nn3)cc2)CC1` [Example 174]: the pIC50 is 6.00 to 7.00.

As to `Cn1cc(-c2ccc(-n3cc(-c4n[nH]c5ccccc45)nn3)cc2)cn1` [Example 261], the pIC50 is 6.00 to 7.00.

Consider `O=C(c1ccc(-n2cc(-c3n[nH]c4ccc(N5CCOC(CCO)C5)cc34)nn2)cc1)N1CCOCC1` (stereo not shown) [Example 264], for which the pIC50 is 6.00 to 7.00.

As to `O=C1C[C@H](OCc2ccc3[nH]nc(-c4cn(-c5ccc(C(=O)N6CCOCC6)cc5)nn4)c3c2)CO1` [Example 154, (4S)-4-[(3-{1-[4-(morpholin-4-ylcarbonyl)phenyl]-1H-1,2,3-triazol-4-yl}-1H-indazol-5-yl)methoxy]dihydrofuran-2(3H)-one], the pIC50 is 6.00 to 7.00.

With `CN1C2CCC1CC(n1cc(-n3cc(-c4n[nH]c5cc(F)ccc45)nn3)cn1)C2` (stereo not shown) [Example 229], the pIC50 was above 7.00.

Turning to `CN1[C@@H]2CC[C@H]1C[C@@H](c1ccc(-n3cc(-c4n[nH]c5cc(F)ccc45)nn3)cc1)C2` [Example 253], the pIC50 was above 7.00.

On to `c1ccc2c(-c3cn(-c4ccc([C@@H]5C[C@H]6CC[C@@H](C5)N6C5CCCCC5)cc4)nn3)n[nH]c2c1` (single isomer, unassigned) [Example 151, 3-(1-{4-[(3-exo)-8-cyclohexyl-8-azabicyclo[3.2.1]oct-3-yl]phenyl}-1H-1,2,3-triazol-4-yl)-1H-indazole], for which the negative-log IC50 (pIC50) is above 7.00.

For the molecule `O=C1C[C@@H](OCc2ccc3[nH]nc(-c4cn(-c5ccc(C(=O)N6CCOCC6)cc5)nn4)c3c2)CO1` [Example 276], the pIC50 was 6.00 to 7.00.

`CN(C)C1CCN(C(=O)c2ccc(-n3cc(-c4n[nH]c5ccc(C6=CCOCC6)cc45)nn3)cc2)CC1` [Example 173] showed a pIC50 of 6.00 to 7.00.

Take `O=C(c1ccc(-n2cc(-c3n[nH]c4cc(Cl)ccc34)nn2)cc1)N1CCOCC1` [Example 185]: the pIC50 was 6.00 to 7.00.

With `c1ccc2c(-c3cn(-c4ccc(-c5cnn(CCN6CCOCC6)c5)cc4)nn3)n[nH]c2c1` [Example 262], the pIC50 was 6.00 to 7.00.

`CN1CCCC1CCNC(=O)c1ccc(-n2cc(-c3n[nH]c4ccccc34)nn2)cc1` (stereo not shown) [Example 90, 4-[4-(1H-indazol-3-yl)-1H-1,2,3-triazol-1-yl]-N-[2-(1-methylpyrrolidin-2-yl)ethyl]benzamide]: the pIC50 was 6.00 to 7.00.

Consider `COCCCc1ccc2c(-c3cn(-c4ccc(C(=O)N5CCOCC5)cc4)nn3)n[nH]c2c1` [Example 220], for which the pIC50 was 6.00 to 7.00.

Turning to `O=C(c1ccc(-n2cc(-c3n[nH]c4cc(-c5ccncc5)ccc34)nn2)cc1)N1CCOCC1` [Example 214], the negative logarithm of the IC50 (pIC50) is 6.00 to 7.00.

`CN1C2CCC1CC(n1cc(-n3cc(-c4n[nH]c5ccc(Cl)cc45)nn3)cn1)C2` (stereo not shown) [Example 227] gave a pIC50 of 6.00 to 7.00.

`NCC#Cc1ccc2c(-c3cn(-c4ccc(C(=O)N5CCOCC5)cc4)nn3)n[nH]c2c1` [Example 219] had a pIC50 of 5.30 to 6.00.

On to `O=C(c1ccc(-n2cc(-c3n[nH]c4ccccc34)nn2)cc1)N1CCOC(CO)C1` (stereo not shown) [Example 161], for which the pIC50 was 6.00 to 7.00.

`Cc1ccc2c(-c3cn(-c4ccc(CN5CCOC(C)(C)C5)cc4)nn3)n[nH]c2c1` [Example 279] had a negative-log IC50 (pIC50) of 6.00 to 7.00.

`OCc1ccc2[nH]nc(-c3cn(-c4ccc(CN5CCOCC5)cc4)nn3)c2c1` [Example 198] showed a pIC50 of 6.00 to 7.00.

Regarding `O=C(NCC1CCCO1)c1ccc(-n2cc(-c3n[nH]c4ccccc34)nn2)cc1` (stereo not shown) [Example 45, 4-[4-(1H-indazol-3-yl)-1H-1,2,3-triazol-1-yl]-N-(tetrahydrofuran-2-ylmethyl)benzamide], the pIC50 was 6.00 to 7.00.

`O=C(c1ccc(-n2cc(-c3n[nH]c4ccccc34)nn2)cc1)N1CCOC(CCO)C1` (stereo not shown) [Example 167] had a pIC50 of 6.00 to 7.00.

Turning to `CC1CCCCN1CCCNC(=O)c1ccc(-n2cc(-c3n[nH]c4ccccc34)nn2)cc1` (stereo not shown) [Example 56], the pIC50 was 6.00 to 7.00.

`c1ccc2c(-c3cn(-c4ccc([C@H]5C[C@H]6CC[C@@H](C5)N6C5CCCCC5)cc4)nn3)n[nH]c2c1` (single isomer, unassigned) [Example 152, 3-(1-{4-[(3-endo)-8-cyclohexyl-8-azabicyclo[3.2.1]oct-3-yl]phenyl}-1H-1,2,3-triazol-4-yl)-1H-indazole] showed a pIC50 of 6.00 to 7.00.

Molecule `NC(=O)COc1ccc2c(-c3cn(-c4ccc(C(=O)N5CCOCC5)cc4)nn3)n[nH]c2c1` [Example 233] had a pIC50 of 6.00 to 7.00.

The molecule `OC(c1ccc(-n2cc(-c3n[nH]c4ccccc34)nn2)cc1)C(F)(F)F` (stereo not shown) [Example 150, 2,2,2-trifluoro-1-{4-[4-(1H-indazol-3-yl)-1H-1,2,3-triazol-1-yl]phenyl}ethanol] showed a negative logarithm of the IC50 (pIC50) of 6.00 to 7.00.

`Cc1cccc2[nH]nc(-c3cn(-c4ccc(C(=O)N5CCOCC5)cc4)nn3)c12` [Example 175] showed a pIC50 of 5.30 to 6.00.

`O=C(NCCCN1CCCC1=O)c1ccc(-n2cc(-c3n[nH]c4ccccc34)nn2)cc1` [Example 61, 4-[4-(1H-indazol-3-yl)-1H-1,2,3-triazol-1-yl]-N-[3-(2-oxopyrrolidin-1-yl)propyl]benzamide] gave a pIC50 of 5.30 to 6.00.

Take `O=C(c1ccc(-n2cc(-c3n[nH]c4ccc(Cn5nc(-c6ccc(O)cc6)ccc5=O)cc34)nn2)cc1)N1CCOCC1` [Example 144, 6-(4-hydroxyphenyl)-2-[(3-{1-[4-(morpholin-4-ylcarbonyl)phenyl]-1H-1,2,3-triazol-4-yl}-1H-indazol-5-yl)methyl]pyridazin-3(2H)-one]: the pIC50 is above 7.00.

Molecule `O=C(c1ccc(-n2cc(-c3n[nH]c4cc(C#CCCO)ccc34)nn2)cc1)N1CCOCC1` [Example 215] gave a pIC50 of 5.30 to 6.00.

The molecule `O=C(c1ccc(-n2cc(-c3n[nH]c4cc(F)ccc34)nn2)cc1)N1CCOCC1` [Example 194] showed a pIC50 of 6.00 to 7.00.

The molecule `O=C(NC1CCC(O)CC1)c1ccc2[nH]nc(-c3cn(-c4ccc(CN5CCOCC5)cc4)nn3)c2c1` (stereo not shown) [Example 231] gave a pIC50 of 6.00 to 7.00.

On to `CN(C)C1CCN(C(=O)c2ccc(-n3cc(-c4n[nH]c5ccc(C6CCCC6)cc45)nn3)cc2)CC1` [Example 183], for which the pIC50 is 6.00 to 7.00.

In the case of `OC(CN1[C@@H]2CC[C@H]1C[C@H](c1ccc(-n3cc(-c4n[nH]c5ccccc45)nn3)cc1)C2)C(F)(F)F` (stereo partly shown) [Example 281], the pIC50 was 6.00 to 7.00.

Take `c1ccc2c(-c3cn(-c4ccc(C5CCN(CC6CCCO6)CC5)cc4)nn3)n[nH]c2c1` (stereo not shown) [Example 239]: the pIC50 is 6.00 to 7.00.

The molecule `CN1CCC(c2ccc(-n3cc(-c4n[nH]c5ccccc45)nn3)cc2)CC1` [Example 211] had a pIC50 of 6.00 to 7.00.

In turn, `Cn1cc(-c2ccc3c(-c4cn(-c5ccc(C(=O)N6CCOCC6)cc5)nn4)n[nH]c3c2)cn1` [Example 209] gave a pIC50 of 5.30 to 6.00.

The molecule `O=C(c1ccc(-n2cc(-c3n[nH]c4cc(NCCO)ccc34)nn2)cc1)N1CCOCC1` [Example 244] showed a pIC50 of 6.00 to 7.00.

For `CC(C)N1CCN(C(=O)c2cccc(-n3cc(-c4n[nH]c5ccccc45)nn3)c2)CC1` [Example 66, 3-(1-{3-[(4-isopropylpiperazin-1-yl)carbonyl]phenyl}-1H-1,2,3-triazol-4-yl)-1H-indazole], the pIC50 is 5.30 to 6.00.

In turn, `O=C(c1ccc2[nH]nc(-c3cn(-c4ccc(CN5CCOCC5)cc4)nn3)c2c1)N1CCC(c2ccncc2)CC1` [Example 236] gave a negative logarithm of the IC50 (pIC50) of 6.00 to 7.00.

`c1ccc2c(-c3cn(-c4ccc([C@H]5C[C@H]6CC[C@@H](C5)N6)cc4)nn3)n[nH]c2c1` [Example 256] showed a negative-log IC50 (pIC50) above 7.00.

Turning to `CN1[C@@H]2CCC[C@H]1C[C@H](c1ccc(-n3cc(-c4n[nH]c5cc(F)ccc45)nn3)cc1)C2` [Example 272], the pIC50 was above 7.00.

As to `O=C(c1cccc(-n2cc(-c3n[nH]c4ccccc34)nn2)c1)N1CCCC(CN2CCCC2)C1` (stereo not shown) [Example 69, 3-[1-(3-{[3-(pyrrolidin-1-ylmethyl)piperidin-1-yl]carbonyl}phenyl)-1H-1,2,3-triazol-4-yl]-1H-indazole], the negative-log IC50 (pIC50) was 5.30 to 6.00.

On to `CN1CCN(C(=O)Cc2ccc(-n3cc(-c4n[nH]c5ccccc45)nn3)cc2)CC1` [Example 70], for which the pIC50 is 6.00 to 7.00.

Consider `c1ccc2c(-c3cn(-c4ccc([C@@H]5C[C@H]6CC[C@@H](C5)N6)cc4)nn3)n[nH]c2c1` [Example 255], for which the pIC50 was above 7.00.

On to `CN1C2CCC1CC(n1cc(-n3cc(-c4n[nH]c5ccc(-c6cnn(C)c6)cc45)nn3)cn1)C2` (stereo not shown) [Example 278], for which the negative logarithm of the IC50 (pIC50) was above 7.00.

For `O=C(c1ccc(-n2cc(-c3n[nH]c4ccc(CNCc5cccc(O)c5)cc34)nn2)cc1)N1CCOCC1` [Example 295], the pIC50 was 6.00 to 7.00.

In turn, `COCC#Cc1ccc2c(-c3cn(-c4ccc(C(=O)N5CCOCC5)cc4)nn3)n[nH]c2c1` [Example 213] gave a pIC50 of 5.30 to 6.00.

Consider `O=C(c1ccc(-n2cc(-c3n[nH]c4ccc(NC5CCCOC5)cc34)nn2)cc1)N1CCOCC1` (stereo not shown) [Example 222], for which the pIC50 is 6.00 to 7.00.

Molecule `CN(C)C1CCN(C(=O)c2ccc(-n3cc(-c4n[nH]c5ccc(C6CCCCC6)cc45)nn3)cc2)CC1` [Example 179] showed a pIC50 of 6.00 to 7.00.

Consider `O=C(c1ccc(-n2cc(-c3n[nH]c4ccc(NC5CCCNC5)cc34)nn2)cc1)N1CCOCC1` (stereo not shown) [Example 257], for which the negative logarithm of the IC50 (pIC50) is above 7.00.
